Values after ≈ are worked out from the molar mass of the structure shown. Marks after values point to notes of the source that are not given here.
Columns and labels:
S. aureus USA300 = assay: MIC against S. aureus USA300; format: cell-based; details: Staphylococcus aureus
Escherichia coli 25922 = assay: MIC against Escherichia coli 25922; format: cell-based
In vitro micronucleus = format: cell-based
Bacillus anthracis = assay: microbe, parasite or virus in culture; format: cell-based
in vitro [1] = details: mouse, hepatocytes
M121K = assay: MIC against M121K mutant; format: cell-based
[2] = test system: Staphylococcus epidermidis; assay: MIC50/90 against Staphylococcus epidermidis; format: cell-based; details: n = 10
in vitro [3] = details: human, plasma
Haemophilus influenzae = assay: MIC50/90 against Haemophilus influenzae; format: cell-based; details: n = 10
S. aureus CF isolate = assay: MIC against S. aureus CF isolate; format: cell-based; details: Staphylococcus aureus
in vitro [4] = details: mouse, plasma
Francisella tularensis = assay: microbe, parasite or virus in culture; format: cell-based
[5] = test system: Mycobacterium chimaera intracellulare group; assay: MIC50 against Mycobacterium chimaera intracellulare group; format: cell-based; details: n = 6
Yersinia pestis = assay: microbe, parasite or virus in culture; format: cell-based
S. aureus 29213 = assay: MIC against S. aureus 29213; format: cell-based; details: Staphylococcus aureus
[6] = Human microsomal stability; format: in vitro ADME; details: microsomes, read-out: Human microsom. t1/2
Rat microsomal stability = format: in vitro ADME; details: microsomes, read-out: Rat microsom. t1/2
Mycobacterium avium = assay: MIC50 against Mycobacterium avium; format: cell-based; details: n = 4
in vitro [7] = details: rat, plasma
FQ-R MRSA = assay: MIC against FQ-R MRSA isolates; format: cell-based, Staphylococcus aureus; details: Staphylococcus aureus, MRSA; n = 15 (147), n = 25 (284, 319, gepotidacin)
S. aureus ATCC 29213 = format: cell-based; details: Using S. aureus ATCC 29213 and four additional strains of S. aureus
K562 = K562 cytotoxicity; format: cell-based; details: Homo sapiens
[8] = in vivo
[9] = Monkey microsomal stability; format: in vitro ADME; details: microsomes, read-out: Monkey microsom. t1/2
Dog microsomal stability = format: in vitro ADME; details: microsomes, read-out: Dog microsom. t1/2
Streptococcus pyogenes = assay: MIC50/90 against Streptococcus pyogenes; format: cell-based
Mycobacterium abscessus = assay: MIC50/90 against Mycobacterium abscessus; format: cell-based; details: Mycobacteroides abscessus; n = 10
hERG = hERG (Homo sapiens, UniProt Q12809); assay: hERG inhibition; format: cell-based
hERG, sequence (Q12809 whole entry): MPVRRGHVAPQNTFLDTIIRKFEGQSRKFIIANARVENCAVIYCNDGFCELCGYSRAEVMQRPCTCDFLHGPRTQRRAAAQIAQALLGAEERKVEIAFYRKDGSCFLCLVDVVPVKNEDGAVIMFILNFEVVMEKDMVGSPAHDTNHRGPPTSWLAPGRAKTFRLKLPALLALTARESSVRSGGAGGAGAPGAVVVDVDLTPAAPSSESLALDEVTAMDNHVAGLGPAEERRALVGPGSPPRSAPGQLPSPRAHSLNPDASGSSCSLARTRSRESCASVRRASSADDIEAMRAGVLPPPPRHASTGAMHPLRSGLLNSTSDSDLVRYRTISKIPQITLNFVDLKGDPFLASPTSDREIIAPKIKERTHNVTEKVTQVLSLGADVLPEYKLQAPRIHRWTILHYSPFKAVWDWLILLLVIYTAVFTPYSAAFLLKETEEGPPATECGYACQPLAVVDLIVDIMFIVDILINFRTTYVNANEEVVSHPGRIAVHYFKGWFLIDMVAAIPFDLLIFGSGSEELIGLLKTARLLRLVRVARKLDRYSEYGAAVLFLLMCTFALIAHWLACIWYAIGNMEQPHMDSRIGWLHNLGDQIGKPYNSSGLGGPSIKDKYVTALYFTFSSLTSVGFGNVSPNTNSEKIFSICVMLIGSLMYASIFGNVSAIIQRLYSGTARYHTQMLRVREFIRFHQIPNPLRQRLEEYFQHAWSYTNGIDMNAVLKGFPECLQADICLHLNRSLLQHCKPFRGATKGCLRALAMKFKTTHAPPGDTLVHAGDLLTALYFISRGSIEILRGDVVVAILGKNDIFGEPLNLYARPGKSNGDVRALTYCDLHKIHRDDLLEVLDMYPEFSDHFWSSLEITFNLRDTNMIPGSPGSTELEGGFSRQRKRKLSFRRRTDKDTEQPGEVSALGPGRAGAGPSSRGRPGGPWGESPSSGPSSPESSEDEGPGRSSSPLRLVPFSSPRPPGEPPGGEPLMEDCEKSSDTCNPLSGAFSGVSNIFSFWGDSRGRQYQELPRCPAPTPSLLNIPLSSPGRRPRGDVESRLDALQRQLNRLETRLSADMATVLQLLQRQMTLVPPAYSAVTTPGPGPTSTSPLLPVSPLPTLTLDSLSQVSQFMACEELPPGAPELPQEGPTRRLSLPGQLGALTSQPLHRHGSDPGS

D83N = assay: MIC against D83N mutant; format: cell-based
[10] = test system: Burkholderia pseudomallei; assay: microbe, parasite or virus in culture; format: cell-based
[11] = not given; remark: listed apart in the source
Burkholderia mallei = assay: microbe, parasite or virus in culture; format: cell-based
[12] = test system: CYP 1A, 2B6, 2C8, 2C9, 2C19, 2D6, 3A; assay: CYP inhibition at 10 μM; format: in vitro ADME
in vivo = details: mouse, Mouse Vdss (L)
[13] = Mouse microsomal stability; format: in vitro ADME; details: microsomes, read-out: Mouse microsom. t1/2
[14] = Permeability: CACO-2 A->B; format: in vitro ADME; details: human, Caco-2
Moraxella catarrhalis = assay: MIC50/90 against Moraxella catarrhalis; format: cell-based; details: n = 10
[15] = not given; remark: listed apart in the source
Enterococcus spp. = assay: MIC50/90 against Enterococcus spp.; format: cell-based; details: n = 10 (147), n = 20 (others)
[16] = test system: Acinetobacter baumannii 19606; assay: MIC against Acinetobacter baumannii 19606; format: cell-based
[17] = 284: as free base in immunocompetent mice, 147: no footnote
[18] = as mesylate salt in neutropenic mice

Structure (SMILES): COc1ccc2ncc(F)c(C[C@H](O)[C@H]3OC[C@H](NCc4cnc5c(n4)NC(=O)CO5)CO3)c2n1 [Compound 284, 6-(((2-((S)-2-(3-fluoro-6-methoxy-1,5-naphthyridin-4-yl)-1-hydroxyethyl)-trans-1,3-dioxan-5-yl)amino)methyl)-2H-pyrazino[2,3-b][1,4]oxazin-3(4H)-one]
- MIC (S. aureus USA300): 0.125 to 0.25 µg/mL (≈ 0.257 to 0.514 µM)
- Escherichia coli 25922 MIC (Escherichia coli 25922): 16 µg/mL
- In vitro micronucleus (In vitro micronucleus): Pos. at high
- MIC50 (Bacillus anthracis; read-out: Bacillus anthracis MIC50 (μg/mL)): 0.06 µg/mL (≈ 0.123 µM)
- MIC90 (Bacillus anthracis; read-out: Bacillus anthracis MIC90 (μg/mL)): 0.25 µg/mL (≈ 0.514 µM)
- half-life (in vitro [1]): > 4 h
- MIC (M121K): 1 to 4 µg/mL (≈ 2.06 to 8.22 µM)
- MIC50 [2]: 0.12 µg/mL (≈ 0.247 µM)
- MIC90 [2]: 0.25 µg/mL (≈ 0.514 µM)
- half-life (in vitro [3]): > 2 h
- MIC50 (Haemophilus influenzae): 4 µg/mL (≈ 8.22 µM)
- MIC90 (Haemophilus influenzae): 8 µg/mL (≈ 16.4 µM)
- MIC (S. aureus CF isolate): 0.125 to 0.25 µg/mL (≈ 0.257 to 0.514 µM)
- half-life (in vitro [4]): > 2 h
- MIC50 (Francisella tularensis; read-out: Francisella tularensis MIC50 (μg/mL)): 0.5 µg/mL (≈ 1.03 µM)
- MIC90 (Francisella tularensis; read-out: Francisella tularensis MIC90 (μg/mL)): 4 µg/mL (≈ 8.22 µM)
- MIC50 [5]: 64 µg/mL (≈ 132 µM)
- MIC50 (Yersinia pestis; read-out: Yersinia pestis MIC50 (μg/mL)): 2 µg/mL (≈ 4.11 µM)
- MIC90 (Yersinia pestis; read-out: Yersinia pestis MIC90 (μg/mL)): 8 µg/mL (≈ 16.4 µM)
- MIC (S. aureus 29213): 0.125 to 0.25 µg/mL (≈ 0.257 to 0.514 µM)
- half-life [6]: > 2 h
- half-life (Rat microsomal stability): > 2 h
- MIC50 (Mycobacterium avium): 4 µg/mL (≈ 8.22 µM)
- half-life (in vitro [7]): > 2 h
- MIC90 (FQ-R MRSA): 0.12 µg/mL (≈ 0.247 µM)
- Resistance freq. (at 8X MIC) (S. aureus ATCC 29213): <9.62 × 10^−10**
- IC50 (K562): > 200 µM
- Mouse Vdss (L) [8]: 0.53*** L
- half-life [9]: > 2 h
- half-life (Dog microsomal stability): > 2 h
- MIC50 (Streptococcus pyogenes; n = 5 (147), n = 10 (others)): 0.5 µg/mL (≈ 1.03 µM)
- MIC90 (Streptococcus pyogenes; n = 10): 2 µg/mL (≈ 4.11 µM)
- MIC50 (Mycobacterium abscessus): > 64 µg/mL
- MIC90 (Mycobacterium abscessus): > 64 µg/mL
- IC50 (hERG): 104 µM
- MIC (D83N): 1 to 2 µg/mL (≈ 2.06 to 4.11 µM)
- Mouse plasma protein binding (% unbound): 31 % unbound
- MIC50 ([10]; read-out: Burkholderia pseudomallei MIC50 (μg/mL)): 32 µg/mL (≈ 65.8 µM)
- MIC90 ([10]; read-out: Burkholderia pseudomallei MIC90 (μg/mL)): 64 µg/mL (≈ 132 µM)
- Rat plasma protein binding (% unbound) [11]: 4 % unbound
- MIC90 (Burkholderia mallei; Burkholderia mallei, read-out: Burkholderia mallei MIC90 (μg/mL)): > 64 µg/mL
- Burkholderia mallei MIC50 (Burkholderia mallei; n = 10): 16 µg/mL
- CYP inhibition at 10 μM (1A, 2B6, 2C8, 2C9, 2C19, 2D6, 3A) [12]: No issues
- Vd (in vivo): 0.36 L
- half-life [13]: > 2 h
- Papp A→B [14]: 1.5 ×10⁻⁶ cm/s
- MIC50 (Moraxella catarrhalis): 0.12 µg/mL (≈ 0.247 µM)
- MIC90 (Moraxella catarrhalis): 0.25 µg/mL (≈ 0.514 µM)
- Human plasma protein binding (% unbound) [15]: 10 % unbound
- MIC50 (Enterococcus spp.): 1 µg/mL (≈ 2.06 µM)
- MIC90 (Enterococcus spp.): 2 µg/mL (≈ 4.11 µM)
- MIC [16]: 8 to 16 µg/mL (≈ 16.4 to 32.9 µM)
- Mouse PK AUClast, unbound (μg*h/mL) after 50 mg/kg oral dose (Mouse pharmacokinetics; [17]): 5** μg*h/mL
- Mouse PK AUClast, unbound (μg*h/mL) after 50 mg/kg oral dose (Mouse pharmacokinetics; [18]): 12*** μg*h/mL
- Mouse Clunbound (mL/min/kg) (Mouse pharmacokinetics; [17]): 15*** mL/min/kg
- Mouse Clunbound (mL/min/kg) (Mouse pharmacokinetics; [18]): 45**** mL/min/kg
